pIC50: −log10 of the molar value.
Each compound was assayed against Adenosine kinase (Homo sapiens, UniProt P55263) (assay: Inhibition of human cytosolic AK).
Chain of Adenosine kinase (P55263 whole entry): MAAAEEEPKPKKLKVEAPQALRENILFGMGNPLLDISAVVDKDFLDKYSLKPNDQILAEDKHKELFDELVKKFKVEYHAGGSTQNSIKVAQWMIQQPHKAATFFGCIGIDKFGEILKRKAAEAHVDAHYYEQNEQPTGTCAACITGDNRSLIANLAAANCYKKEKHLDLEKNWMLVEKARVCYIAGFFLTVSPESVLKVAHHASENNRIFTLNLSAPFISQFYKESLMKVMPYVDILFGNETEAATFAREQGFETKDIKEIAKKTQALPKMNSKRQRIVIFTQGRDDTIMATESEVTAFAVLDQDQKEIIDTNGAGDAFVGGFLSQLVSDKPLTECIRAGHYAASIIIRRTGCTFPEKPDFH

| pIC50 | SMILES |
| --- | --- |
| < 6.00 | Cc1nc(N)c(-c2ccccc2)c(C#Cc2ccc(N(C)C)cc2)n1 |
| 8.60 | Nc1ncnc(C#Cc2ccc(N3CCOCC3)nc2)c1CCCc1ccccc1 |
| 8.05 | CN(C)c1ccc(C#Cc2ncnc(N)c2-c2ccc3c(c2)OCO3)cc1 |
| 7.17 | CN(C)c1ccc(-c2c(N)ncnc2C#Cc2ccc(N3CCOCC3)nc2)cc1 |
| 6.92 | Nc1cc(C#Cc2ccc(N3CCOCC3)nc2)ncn1 |
| 7.70 | CN(C)c1ccc(C#Cc2ncnc(N)c2-c2ccccc2)cc1 |
| 7.40 | Nc1ncnc(C#Cc2ccc(N3CCOCC3)nc2)c1Cc1ccccc1 |

From ChEMBL document CHEMBL1137332, “Crystal structures of human adenosine kinase inhibitor complexes reveal two distinct binding modes” (J Med Chem, 2006)
